Test results as given in patent US11518754B2, “Radiolabeled pharmaceuticals and methods of making and using same” (YALE UNIVERSITY, priority 2017, dated 2022).
Read-outs that look alike come from different tables or passages of the source.

What was measured:
SV2A [1] = target: SV2A (Rattus norvegicus (Rat), UniProt Q02563)
Description: One Sprague Dawley rat was euthanized with carbon dioxide inhalation. The brain was harvested, rapidly frozen on dry ice and then stored at −80° C. The whole brain homogenates were obtained following published procedures. The final homogenate was suspended in 20 mM Tris-HCl buffer (pH 7.4) containing 250 mM of sucrose at a wet tissue concentration of 100 mg/mL and stored at −80° C. until use.
For competition binding experiments, 0.5 mg of the rat brain homogenates in 800 μL of binding buffer (2 mM MgCl2 in 50 mM Tris*HCl, pH=7.4) were incubated on a thermoshaker at 37° C. for 30 min with 100 μL (R)-^11C-3 or (R)-^18F-11 and 100 μL of the compound over a range of concentrations (from 0.1 to 100 nM). Nonspecific binding was defined as the residual binding observed in the presence of 1 mM levetiracetam (100 μL). At completion of the incubation period, the membrane-bound radioligand was recovered using rapid filtration through GF/B glass fiber filters (13 mm GD/X, Whatman Inc.) which were pre-soaked for at least 30 min in 0.5% polyethyleneimine (PEI). The membranes were washed twice with 1 mL of ice-cooled binding buffer. The binding mixtures, filters and filtrates were counted using cross-calibrated gamma counters (1480 & 2480 WIZARD; Perkin-Elmer). Values of IC50 were calculated using the [sequence] PRISM™ software and converted to inhibition constants (Ki) by the Cheng-Prusoff equation.

SV2A [2] = target: SV2A (Macaca mulatta, UniProt H9EQH8); experiment: PET imaging studies in rhesus monkeys; settings: for blocking of radiotracer specific binding to SV2A: levetiracetam 30 mg/kg i.v. or UCB-J 150 μg/kg i.v. before radiotracer injection; for Binding potential (BPND): from VT, centrum semiovale as reference region; for Displacement of radiotracer binding by levetiracetam: levetiracetam 30 mg/kg i.v. infused 60 or 90 min post injection of the radiotracer; for time to SUV peak in gray matter regions: rhesus monkey, in vivo, iv
Description: Experiments were performed in rhesus monkeys (Macaca mulatta). Rhesus monkeys were sedated using intramuscular (i.m.) injection of ketamine and glycopyrrolate approximately 2 hours before the PET scan and anesthesia was maintained with isoflurane (1.5%-2.5%) for the duration of the experiments. Baseline PET scans were obtained after intravenous (i.v.) injection of ^11C-3, ^18F-3, ^18F-4, ^18F-5, ^18F-10, ^18F-11, or ^18F-12.
Arterial blood samples were collected during the PET scans to calculate the plasma input function and to determine the unmetabolized parent fraction using the automatic column-switching HPLC system. Plasma free fraction (fp) was measured in triplicate using the ultrafiltration method.
PET scans of the brain were acquired using the FOCUS 220 PET scanner (Siemens Preclinical Solutions) with a reconstructed image resolution of approximately 1.5 mm. After a transmission scan, the radioligand was injected i.v. as a 3 min slow bolus by an infusion pump (PHD 22/2000; Harvard Apparatus). List-mode data were acquired for 120-180 min and binned into sinograms with an applicable number of frames. Scan data were reconstructed with a Fourier rebinning/filtered backprojection algorithm with corrections for attenuation, scanner normalization, radiation scatter, and randoms. Regions of interest were manually delineated on a single representative anatomic rhesus monkey MR image registered to a template image. The regions used in this study were amygdala, brain stem, caudate, centrum semiovale, cerebellum, cingulate cortex, frontal cortex, globus pallidus, insular cortex, nucleus accumbens, occipital cortex, pons, putamen, temporal cortex, and thalamus. Registration parameters were obtained to apply the regions of interest to individual PET scans, and regional time-activity curves were generated. Regional time-activity curves of the brain were analyzed with the 1-tissue-(1T) compartment model. Fit quality was compared with the 2-tissue model and the multilinear analysis method to calculate VT.
Typical injected radioactivity amount was 0.5-5 mCi per injection, with typical injected mass amount of 1-10 μg.
Specific binding to SV2A was further examined for ^11C-3, ^18F-3, and ^18F-11 in blocking studies, where levetiracetam or UCB-J ((R)-3) was i.v. infused before injection of the radiotracers.

[3] = Plasma free fraction (fp) by ultrafiltration method; format: in vitro ADME, rhesus monkeys (Macaca mulatta); settings: plasma (from arterial blood samples), rhesus monkey plasma
[4] = IC50, rat brain homogenates, radioligand (R)-11C-3 or (R)-18F-11, 37° C., 30 min
[5] = Ki, converted from IC50 by the Cheng-Prusoff equation
[6] = converted from IC50 by the Cheng-Prusoff equation
[7] = rat brain homogenates, radioligand (R)-11C-3 or (R)-18F-11, 37° C., 30 min

SV2A (Rattus norvegicus (Rat), UniProt Q02563), sequence (Q02563 whole entry, the tested form may be a part): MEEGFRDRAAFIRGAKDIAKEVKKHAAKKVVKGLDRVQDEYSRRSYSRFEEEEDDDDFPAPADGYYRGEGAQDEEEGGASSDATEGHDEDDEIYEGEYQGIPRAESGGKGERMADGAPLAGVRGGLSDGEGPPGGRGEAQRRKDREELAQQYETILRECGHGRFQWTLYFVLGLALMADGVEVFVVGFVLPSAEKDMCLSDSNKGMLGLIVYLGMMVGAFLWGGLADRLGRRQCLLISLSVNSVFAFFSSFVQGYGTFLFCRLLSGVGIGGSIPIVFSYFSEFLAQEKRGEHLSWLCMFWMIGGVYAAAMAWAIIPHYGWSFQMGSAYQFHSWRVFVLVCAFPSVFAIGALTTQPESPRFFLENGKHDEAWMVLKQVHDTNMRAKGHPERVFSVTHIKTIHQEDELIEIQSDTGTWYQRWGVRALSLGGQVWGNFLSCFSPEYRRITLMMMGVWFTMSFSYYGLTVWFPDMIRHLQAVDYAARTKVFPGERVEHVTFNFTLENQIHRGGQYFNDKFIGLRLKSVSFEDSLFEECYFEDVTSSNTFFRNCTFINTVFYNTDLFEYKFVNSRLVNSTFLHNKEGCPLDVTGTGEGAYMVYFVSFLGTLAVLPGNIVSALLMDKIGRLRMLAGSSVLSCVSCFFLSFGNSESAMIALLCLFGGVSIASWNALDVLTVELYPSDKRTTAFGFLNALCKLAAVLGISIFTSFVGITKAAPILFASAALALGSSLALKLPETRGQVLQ
SV2A (Macaca mulatta, UniProt H9EQH8), sequence (H9EQH8 1-742): as the sequence (Q02563 whole entry, the tested form may be a part) above, with E53D, A62S, G64S, A71T, D144E, T154A, S440G, A482S, L634M counted along it

## O=C1CC(c2cccc(F)c2)CN1Cc1ccncc1 (single isomer, unassigned) [(S)-12, 4-(3-Fluorophenyl)-1-(pyridin-4-ylmethyl)pyrrolidin-2-one]
SV2A [1]
  IC50: 28.2 nM
  Ki: 4.66 nM

## Cc1cnccc1CN1CC(c2cccc(F)c2)CC1=O (single isomer, unassigned) [(S)-11, 4-(3-Fluorophenyl)-1-((3-methylpyridin-4-yl)methyl)pyrrolidin-2-one]
SV2A [1]; [4]
  IC50: 109 nM
SV2A [1]; [5]
  Ki: 18.2 nM

## CC[C@@H](C(N)=O)N1CCCC1=O [levetiracetam, reference compound]
SV2A [2]
  blocking of radiotracer specific binding to SV2A: blocking of specific binding

## Cc1cnccc1CN1CC(c2ccc(F)c(F)c2)CC1=O (centres unmarked) [^18F-4, 4-(3,4-difluorophenyl)-1-((3-methylpyridin-4-yl)methyl)pyrrolidin-2-one]
SV2A [2]; Amygdala
  Binding potential (BPND): 0.66
SV2A [2]; Brainstem
  Binding potential (BPND): 0.75
SV2A [2]; Caudate nucleus
  Binding potential (BPND): 1.72
SV2A [2]; Cerebellum
  Binding potential (BPND): 0.55
SV2A [2]; Cingulate cortex
  Binding potential (BPND): 2.60
SV2A [2]; Frontal cortex
  Binding potential (BPND): 2.51
SV2A [2]; Globus pallidus
  Binding potential (BPND): 0.95
SV2A [2]; Hippocampus
  Binding potential (BPND): 1.35
SV2A [2]; Insular cortex
  Binding potential (BPND): 2.41
SV2A [2]; Nucleus accumbens
  Binding potential (BPND): 2.47
SV2A [2]; Occipital cortex
  Binding potential (BPND): 2.30
SV2A [2]; Pons
  Binding potential (BPND): 0.73
SV2A [2]; Putamen
  Binding potential (BPND): 1.86
SV2A [2]; Temporal cortex
  Binding potential (BPND): 2.21
SV2A [2]; Thalamus
  Binding potential (BPND): 1.65
SV2A [2]
  Displacement of radiotracer binding by levetiracetam: reduced the binding of these tracers to a significant extent
  time to SUV peak in gray matter regions: ≤ 10 min
[3]
  fraction unbound: 0.41

## O=C1C[C@H](c2cccc(F)c2)CN1Cc1ccncc1 (single isomer, unassigned) [(R)-12, 4-(3-Fluorophenyl)-1-(pyridin-4-ylmethyl)pyrrolidin-2-one]
SV2A [1]; [6]
  Ki: 4.43 nM
SV2A [1]; [7]
  IC50: 26.8 nM

## Cc1cnccc1CN1C[C@@H](c2cc(F)cc(F)c2)CC1=O (single isomer, unassigned) [Compound (R)-5, 4-(3,5-Difluorophenyl)-1-((3-methylpyridin-4-yl)methyl)pyrrolidin-2-one]
SV2A [1]; [6]
  Ki: 0.58 nM
SV2A [1]; [7]
  IC50: 3.52 nM

## Cc1cnccc1CN1CC(c2cccc(F)c2)CC1=O (single isomer, unassigned) [(R)-11, 4-(3-Fluorophenyl)-1-((3-methylpyridin-4-yl)methyl)pyrrolidin-2-one]
SV2A [1]; [4]
  IC50: 26.9 nM
SV2A [1]; [5]
  Ki: 4.44 nM

## Cc1cnccc1CN1C[C@H](c2cc(F)cc(F)c2)CC1=O (single isomer, unassigned) [(S)-5, 4-(3,5-Difluorophenyl)-1-((3-methylpyridin-4-yl)methyl)pyrrolidin-2-one]
SV2A [1]; [6]
  Ki: 115 nM
SV2A [1]; [7]
  IC50: 698 nM

## Cc1cnccc1CN1CC(c2ccc(F)c(F)c2)CC1=O (single isomer, unassigned) [(R)-4, 4-(3,4-difluorophenyl)-1-((3-methylpyridin-4-yl)methyl)pyrrolidin-2-one]
SV2A [1]
  IC50: 12.6 nM
  Ki: 2.08 nM

## Cc1cnccc1CN1CC(c2cc(F)c(F)c(F)c2)CC1=O (centres unmarked) [^18F-3, 1-((3-methylpyridin-4-yl)methyl)-4-(3,4,5-trifluorophenyl) pyrrolidin-2-one]
SV2A [2]; Amygdala
  Binding potential (BPND): 1.65 ± 1.04
SV2A [2]; Brainstem
  Binding potential (BPND): 0.84 ± 0.28
SV2A [2]; Caudate nucleus
  Binding potential (BPND): 2.54 ± 0.60
SV2A [2]; Cerebellum
  Binding potential (BPND): 1.88 ± 0.42
SV2A [2]; Cingulate cortex
  Binding potential (BPND): 4.04 ± 0.38
SV2A [2]; Frontal cortex
  Binding potential (BPND): 3.90 ± 0.54
SV2A [2]; Globus pallidus
  Binding potential (BPND): 1.08 ± 0.59
SV2A [2]; Hippocampus
  Binding potential (BPND): 1.99 ± 0.75
SV2A [2]; Insular cortex
  Binding potential (BPND): 3.51 ± 0.56
SV2A [2]; Nucleus accumbens
  Binding potential (BPND): 3.85 ± 0.57
SV2A [2]; Occipital cortex
  Binding potential (BPND): 3.35 ± 0.27
SV2A [2]; Pons
  Binding potential (BPND): 0.80 ± 0.26
SV2A [2]; Putamen
  Binding potential (BPND): 2.62 ± 0.46
SV2A [2]; Temporal cortex
  Binding potential (BPND): 3.14 ± 0.41
SV2A [2]; Thalamus
  Binding potential (BPND): 2.53 ± 1.18
SV2A [2]
  Displacement of radiotracer binding by levetiracetam: reduced the binding of these tracers to a significant extent
  time to SUV peak in gray matter regions: slower
SV2A [2]; levetiracetam (30 mg/kg) or UCB-J (150 μg/kg) i.v. 10 min before radiotracer injection
  Uptake of radiotracer in blocking studies: reduced to background levels
[3]
  fraction unbound: 0.42 ± 0.06

## Cc1cnccc1CN1C[C@H](c2ccc(F)c(F)c2)CC1=O (single isomer, unassigned) [(S)-4, 4-(3,4-difluorophenyl)-1-((3-methylpyridin-4-yl)methyl)pyrrolidin-2-one]
SV2A [1]; [6]
  Ki: 9.43 nM
SV2A [1]; [7]
  IC50: 57 nM

## Cc1cnccc1CN1C[C@H](c2cc(F)c(F)c(F)c2)CC1=O (single isomer, unassigned) [(S)-3, 1-((3-methylpyridin-4-yl)methyl)-4-(3,4,5-trifluorophenyl) pyrrolidin-2-one]
SV2A [1]; [6]
  Ki: 12.5 nM
SV2A [1]; [7]
  IC50: 75.6 nM

## O=C1CC(c2cccc(F)c2)CN1Cc1ccncc1 (centres unmarked) [^18F-12, 4-(3-Fluorophenyl)-1-(pyridin-4-ylmethyl)pyrrolidin-2-one]
SV2A [2]; Amygdala
  Binding potential (BPND): 0.04
SV2A [2]; Brainstem
  Binding potential (BPND): −0.06
SV2A [2]; Caudate nucleus
  Binding potential (BPND): 0.75
SV2A [2]; Cerebellum
  Binding potential (BPND): 0.25
SV2A [2]; Cingulate cortex
  Binding potential (BPND): 1.45
SV2A [2]; Frontal cortex
  Binding potential (BPND): 1.28
SV2A [2]; Globus pallidus
  Binding potential (BPND): 0.29
SV2A [2]; Hippocampus
  Binding potential (BPND): 0.44
SV2A [2]; Insular cortex
  Binding potential (BPND): 1.09
SV2A [2]; Nucleus accumbens
  Binding potential (BPND): 1.18
SV2A [2]; Occipital cortex
  Binding potential (BPND): 0.90
SV2A [2]; Pons
  Binding potential (BPND): −0.09
SV2A [2]; Putamen
  Binding potential (BPND): 0.86
SV2A [2]; Temporal cortex
  Binding potential (BPND): 0.95
SV2A [2]; Thalamus
  Binding potential (BPND): 0.42
SV2A [2]
  Displacement of radiotracer binding by levetiracetam: reduced the binding of these tracers to a significant extent
  time to SUV peak in gray matter regions: ≤ 10 min
[3]
  fraction unbound: 0.61

## Cc1cnccc1CN1CC(c2cc(F)c(F)c(F)c2)CC1=O (single isomer, unassigned) [(R)-3, 1-((3-methylpyridin-4-yl)methyl)-4-(3,4,5-trifluorophenyl) pyrrolidin-2-one]
SV2A [2]
  blocking of radiotracer specific binding to SV2A: blocking of specific binding
SV2A [1]; [4]
  IC50: 1.62 nM
SV2A [1]; [5]
  Ki: 0.27 nM
